Where “and” joins values, the source holds several entries; their conditions need not be identical. Identical values can stand only once.
System: MX-1 breast xenograft, nude mice, tumor weight change
Test: NCI In Vivo Anticancer Drug Screen. Data for tumor model Human Mammary Carcinoma MX-1 Xenograft (subcutaneous) in NU/NU Swiss (nude) mice
Settings: endpoint: optimum tumor weight change, schedule: Q04DX003 (ip), higher = larger tumour
Experimental: The antitumor activity of compounds was measured in mice bearing transplantable tumors. Survival or tumor size were measured and the results are expressed as the measurement made in the treated group (T) divided by the measurement made in the vehicle treated control group (C). The tumor model used in this assay is Human Mammary Carcinoma MX-1 Xenograft (subcutaneous) in NU/NU Swiss (nude) mice

[1] = dose: 100.0 mg/kg/injection, vehicle: saline
[2] = dose: 25.0 mg/kg/injection, vehicle: saline
[3] = dose: 50.0 mg/kg/injection, vehicle: saline
[4] = dose: 200.0 mg/kg/injection, vehicle: saline

SMILES: OCC1OC(n2cnc3c2NC=NC[C@H]3O)CC1O (some centres undefined)
- T/C (dose: 4.0 mg/kg/injection, vehicle: water): 77 % of control
- T/C (dose: 8.0 mg/kg/injection, vehicle: water): 78 % of control
- T/C (dose: 16.0 mg/kg/injection, vehicle: water): 49 % of control

SMILES: CN1N=C(N)c2cn(C3OC(COP(=O)(O)O)C(O)C3O)c3ncnc1c23 (centres undefined)
- T/C (dose: 25.0 mg/kg/injection, vehicle: water): 102 % of control

SMILES: COc1cc([C@@H]2c3cc4c(c(O)c3C[C@H]3COC(=O)[C@@H]32)OCO4)cc(OC)c1OC
- T/C (dose: 2.5 mg/kg/injection, vehicle: saline): 113 % of control
- T/C (dose: 5.0 mg/kg/injection, vehicle: saline): 64 % of control
- T/C (dose: 10.0 mg/kg/injection, vehicle: saline): 112 % of control

SMILES: Oc1ccc(O)cc1
- T/C [1]: 110 % of control

SMILES: O=P1(NCCCl)OCCCN1CCCl (centres undefined)
- T/C [2]: 57 % of control
- T/C [3]: 56 % of control

SMILES: O=C/C(Cl)=C(/Cl)C(=O)O
- T/C (dose: 12.5 mg/kg/injection, vehicle: saline with Tween-80): 96 % of control

SMILES: CCCCNCCCNCCCNC(=O)c1csc(-c2csc(CCNC(=O)C(NC(=O)C(C)C(O)C(C)NC(=O)C(NC(=O)c3nc(C(CC(N)=O)NCC(N)C(N)=O)nc(N)c3C)C(OC3OC(CO)C(O)C(O)C3OC3OC(CO)C(O)C(OC(N)=O)C3O)c3cnc[nH]3)C(C)O)n2)n1 (centres undefined)
- T/C (dose: 7.5 mg/kg/injection, vehicle: saline): 49 % of control and 57 % of control
- T/C (dose: 30.0 mg/kg/injection, vehicle: saline): 29 % of control (2×) and 49 % of control
- T/C (dose: 60.0 mg/kg/injection, vehicle: saline): 5 % of control and 12 % of control and 18 % of control
- T/C (dose: 120.0 mg/kg/injection, vehicle: saline): 2 % of control

SMILES: O=c1[nH]cnc2n[nH]nc12
- T/C (dose: 400.0 mg/kg/injection, vehicle: Klucel (hydroxypropylcellulose) (HPC)): 99 % of control

SMILES: N[C@@H](Cc1ccc(N(CCCl)CCCl)cc1)C(=O)O
- T/C (dose: 2.0 mg/kg/injection, vehicle: Klucel (hydroxypropylcellulose) (HPC)): 49 % of control
- T/C (dose: 4.0 mg/kg/injection, vehicle: Klucel (hydroxypropylcellulose) (HPC)): 37 % of control
- T/C (dose: 4.0 mg/kg/injection, vehicle: suspension in saline): 19 % of control and 36 % of control
- T/C (dose: 8.0 mg/kg/injection, vehicle: Klucel (hydroxypropylcellulose) (HPC)): -42 % of control

SMILES: CC1(CO)C(O)CCC2(C)C1CCC1CC3CC12CCC3(O)CO (centres undefined)
- T/C (dose: 100.0 mg/kg/injection, vehicle: saline with Tween-80): 50 % of control
- T/C (dose: 200.0 mg/kg/injection, vehicle: saline with Tween-80): 61 % of control
- T/C (dose: 400.0 mg/kg/injection, vehicle: saline with Tween-80): 54 % of control

SMILES: COC(OC(CO)C(O)S(=O)(=O)O)C(O)S(=O)(=O)O (centres undefined)
- T/C (dose: 25.0 mg/kg/injection, vehicle: Klucel (hydroxypropylcellulose) (HPC)): 83 % of control
- T/C (dose: 50.0 mg/kg/injection, vehicle: Klucel (hydroxypropylcellulose) (HPC)): 80 % of control
- T/C (dose: 100.0 mg/kg/injection, vehicle: Klucel (hydroxypropylcellulose) (HPC)): 62 % of control
- T/C [1]: 63 % of control
- T/C [4]: 74 % of control
- T/C (dose: 400.0 mg/kg/injection, vehicle: saline): 68 % of control
- T/C (dose: 800.0 mg/kg/injection, vehicle: saline): 47 % of control

SMILES: N=C(N)SCc1c2ccccc2c(CSC(=N)N)c2ccccc12
- T/C (dose: 25.0 mg/kg/injection, vehicle: suspension in saline): 83 % of control
- T/C (dose: 50.0 mg/kg/injection, vehicle: suspension in saline): 123 % of control

SMILES: N[C@H](C(=O)O)[C@@H]1CC(Cl)=NO1
- T/C [2]: 19 % of control
- T/C [3]: 12 % of control
- T/C [1]: 5 % of control
- T/C [4]: 1 % of control

SMILES: Nc1cc2[nH]cnc2c(=O)[nH]1
- T/C [3]: 58 % of control
- T/C [1]: 87 % of control
- T/C [4]: 59 % of control
